Results from patent US11225469B2, “Inhibitors of phosphoglycerate dehydrogenase (PHGDH) and uses thereof” (Whitehead Institute for Biomedical Research, priority 2015, dated 2022).

Assays:
C234S PHGDH = C234S PHGDH (Homo sapiens (Human), UniProt O43175, C234S); experiment: Inhibition of C234S mutant PHGDH in vitro; type: biochemical; settings: C234S vs wild type PHGDH
[1] = Pharmacokinetics after intraperitoneal administration; type: in vivo
PHGDH = PHGDH (Homo sapiens (Human), UniProt O43175); experiment: Differential scanning fluorimetry; type: binding
Protocol: Destabilization has been previously observed in the specific binding of small molecules to their protein targets (see, e.g., Hamiaux, C. et al. “DAD2 is an α/β hydrolase likely to be involved in the perception of the plant branching hormone, strigolactone.” Curr Biol 22, 2032-2036 (2012)).
Differential scanning fluorimetry assays were carried out in 20 mM TEA pH 8, 100 mM NaCl, 1× SYPRO Orange (Sigma), 2 μM PHGDH in a volume of 10 μL. Unfolding was monitored using a LightCycler 480 II real-time PCR instrument (λex=465 nm and λem=580 nm) over a linear 20 to 85° C. gradient. Plots of the first derivative of fluorescence vs. temperature were generated in LightCycler software.

[2] = system: serine biosynthetic pathway; experiment: Labeled serine in brain after tail vein injection of 13C glucose; type: in vivo, mouse; settings: 35 mg/kg
Protocol: The mice were sacrificed at the indicated times, and the fraction of labeled serine in the brain was determined by LC-MS and normalized to the fraction of labeled lactate (FIG. 4J).

[3] = system: MDA-MB-231 cells over-expressing PHGDH; experiment: Intracellular serine in MDA-MB-231 cells expressing PHGDH, medium lacking serine and glycine (LC-MS); type: cell-based, human; settings: media lacking serine and glycine
Protocol: To examine target engagement of PHGDH inhibitors in cells, MDA-MB-231 cells that lack detectable expression of PHGDH and MDA-MB-231 cells that stably express full-length human PHGDH (MDA-MB-231-PHGDH) were treated with PHGDH inhibitors in RPMI lacking serine and glycine. A MDA-MB-231 cell line was constructed which expresses PHGDH for comparison against the MDA-MB-231 empty vector line. MDA-MB-231 breast cancer cells were infected with PHGDH-expressing retrovirus.
MDA-MB-231 cells are incapable of synthesizing serine, but the addition of PHGDH permits these cells to synthesize serine. […] Concentrations of serine were determined by comparison with signals of internal standards and calibration curves. PHGDH inhibition reduces steady-state levels of intracellular serine in MDA-MB-231 cells over-expressing PHGDH. Studies were also performed in MDA-MB-468 cells, which over-express PHGDH and are PHGDH-dependent.
Cells were evenly seeded at 400,000 cells per well of a 6-well plate and allowed to attach for 24 hours. Prior to all labeling experiments, cells were pretreated with 10 μM compound or an equivalent volume of DMSO in RPMI for 1 hour. For steady-state metabolite concentrations, cells were washed with PBS prior to pretreatment and treatment in RPMI lacking serine and glycine. For labeling experiments, U-^13C-glucose, U-^13C-serine, or U-^13C-glycine replaced the corresponding unlabeled RPMI component. Cells were washed in 4° C. […] Triplicate identically seeded wells were trypsinzed and analyzed with a Multisizer Coulter Counter (Beckman Coulter) to obtain cell counts and total cell volumes for normalization.
Dried metabolites were resuspended in 100 μL water, centrifuged at 13,000×g at 4° C. for 10 minutes, and the supernatant recovered for analysis. […] Metabolites were monitored using a polarity-switching full-scan method and identified by accurate mass (±20 ppm) and retention time within 15 seconds of a previously run pure standard. […]

Solubility = type: physicochemical

PHGDH, sequence (O43175 whole entry): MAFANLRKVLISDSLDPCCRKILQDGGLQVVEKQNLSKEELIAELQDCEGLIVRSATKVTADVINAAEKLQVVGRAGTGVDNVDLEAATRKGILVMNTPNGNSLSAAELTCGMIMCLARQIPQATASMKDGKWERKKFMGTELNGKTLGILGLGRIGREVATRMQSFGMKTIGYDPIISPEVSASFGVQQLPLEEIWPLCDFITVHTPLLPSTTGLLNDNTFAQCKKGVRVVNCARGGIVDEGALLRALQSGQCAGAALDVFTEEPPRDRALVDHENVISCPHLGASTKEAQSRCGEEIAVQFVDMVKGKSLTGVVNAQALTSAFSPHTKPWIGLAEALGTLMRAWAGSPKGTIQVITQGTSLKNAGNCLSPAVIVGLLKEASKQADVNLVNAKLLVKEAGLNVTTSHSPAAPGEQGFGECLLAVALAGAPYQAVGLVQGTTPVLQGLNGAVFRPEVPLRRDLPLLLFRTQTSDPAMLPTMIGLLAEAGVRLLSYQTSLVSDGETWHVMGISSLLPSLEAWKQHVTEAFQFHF
C234S PHGDH, sequence (O43175 whole entry C234S): as the sequence (O43175 whole entry) above, with C234S counted along it

SMILES: Cc1cc(C)nc(NC(=S)N2CCN(Cc3ccc(C(F)(F)F)cc3)CC2)c1 [Compound 267, N-(4,6-dimethylpyridin-2-yl)-4-(4-(trifluoromethyl)benzyl)piperazine-1-carbothioamide]
- reduction of potency of PHGDH inhibition by C234S mutation (C234S PHGDH): approximately 3 fold
- partitioning into the liver and brain [1]: significant partitioning
- Tm of PHGDH (PHGDH): decreased
- incorporation of carbon-13 from glucose into serine in the brain [2]: block incorporation
- intracellular serine levels [3]: reduced
- aqueous solubility (Solubility): reasonable aqueous solubility
